Consider one substance from PMC5365251, “Biophysical assay for tethered signaling reactions reveals tether-controlled activity for the phosphatase SHP-1” (Science Advances, 2017).

The test system of data set [1] is PEG28-ITIM. Description: Anti-phosphotyrosine antibody injected after SHP-1 on SPR chip: surviving phosphotyrosines. The format is biochemical, mouse. The method, then:
To create a substrate surface for SHP-1 in SPR, we coated a surface with peptides containing an ITIM sequence, from the […] of the inhibitory receptor LAIR-1, with a 28-repeat polyethylene glycol (PEG) spacer (PEG28-ITIM; Table 1). When SHP-1 was injected over this surface, we observed a complicated curve with an initial binding phase that was quickly followed by a reduction in binding despite continuous injection of SHP-1 (Fig. 2A). To convert the arbitrary response units reported by the SPR instrument to a more meaningful unit, we normalized this curve to maximum binding, assuming a one-to-one interaction with peptide (see Materials and Methods).
Fig. 2 An SPR assay recovers five independent biophysical/biochemical constants characterizing tethered enzymatic reactions by SHP-1. (A) Representative SPR trace (black dots) for SHP-1 injected over a surface immobilized with 48.5 RU of an ITIM peptide derived from LAIR-1 on a 28-repeat PEG linker (PEG28-ITIM). A fit of the MPDPDE model (red line) provides estimates for the indicated parameters. Early time data and fit are shown on the right. S1. […] (C) Schematic of reactions taking place when SHP-1 is injected over a surface of immobilized phosphorylated peptides. […]

Data set [2] has as its system PEG12-ITIM peptide. The data set can be described thus: Solution phosphatase assay (inorganic phosphate release). The format is biochemical, mouse. Conditions: PEG12-ITIM 10 μM, pH 7.4, 10°C, BIOMOL Green; fit of progress curves. On the procedure:
Purified SHP-1 was mixed with PEG12-ITIM peptide at 10 μM, in 10 mM Hepes (pH 7.4), 150 mM NaCl, 3 mM EDTA, 0.005% Surfactant P20, and 1 mM dithiothreitol (Sigma). Temperature was regulated to 10°C with a thermocycler heat block, and the production of inorganic phosphate was measured at the indicated time points using BIOMOL Green (Enzo Life Sciences).
The resulting progress curves (Fig. 1B) were fit using a standard mathematical model ([20]) based on the following reaction scheme F+S^*⇌koffkonCkcat⇀F+S where F is the phosphatase, S* is the phosphorylated peptide substrate, S is the unphosphorylated peptide product, and C is the intermediate enzyme-substrate complex. This reaction scheme corresponds to the following coupled ODEs ∂F/∂t=−konFS*+(koff+kcat)C∂S*/∂t=−konFS*+koffC∂C/∂t=konFS*−(koff+kcat)C∂S/∂t=kcatC with the following conservation equations for the enzyme and substrate, FT=E+CST=S*+C+S where FT is the initial SHP-1 concentration and ST is the initial concentration of phosphorylated substrate. A common assumption for in vitro solution-based enzyme assays is that the enzyme-substrate complex (C) changes on a […] time scale compared to the time scale of product formation (that is, ∂C/∂t ≈ 0). Using this quasi–steady-state approximation, which is valid when E ≪ S + Km ([46], [47]), we find C = FTS^∗/(Km + S^∗). […] The initial condition is S(t = 0) = 0. […]

On to “SHP-1: murine SHP-1 tyrosine phosphatase with an N-terminal 6× His tag, expressed in E. coli”, for which the “dephosphorylation of immobilised peptide (in words)” value in data set [1] (anti-phosphotyrosine antibody (clone 4G10) injected after SHP-1 on SPR chip, PEG28-ITIM) is listed as “near complete dephosphorylation”. Besides, the “anti-phosphotyrosine antibody binding after SHP-1 injection (in words)” value in data set [1] (experimental flow cell compared to buffer-injected control with equivalent peptide levels, Fig. 2B) is on record as “reduced binding”. The “k*cat (= kcat/Km), overall catalytic rate in solution” value in data set [2] was found to be 6800 M⁻¹ s⁻¹.
